From patent US20240228481A1, “NOVEL SULFONAMIDE SERIES OF QR2 INHIBITORS TO TACKLE OXIDATIVE STRESS AND COGNITIVE DECLINE” (CARMEL HAIFA UNIVERSITY ECONOMIC CORPORATION LTD., priority 2021, published 2024)
“And” between values parts separate entries of the source, which are not always exact repeats. Identical values can stand only once. Counter-ions that a name gives are not always drawn.

Tests used:
[1] = molecular target: T1, QR1 (NQO1) (Homo sapiens, UniProt P15559); assay: Selectivity assay with QR1 in place of QR2, fluorescence readout; format: biochemical
T1 construct: purchased Sigma-Aldrich

[2] = tested on: HEK293T cells; assay: XTT cell viability assay; format: cell-based; conditions: 3 h incubation, 20 nM-20 μM
Method: HEK293FT cells were cultured with penicillin-streptomycin antibiotics in Invitrogen DMEM (Thermo Fisher Scientific) with 10% fetal bovine serum and L-glutamine and grown to 80-90% confluence in 100 mm plates, while being passaged every 2-3 days. For the XTT assay (Biological Industries), cells were then collected, centrifuged, and resuspended in fresh minimum essential medium, and seeded at 50,000 cells/well in 96-well, poly-L-lysine-coated Nunc black, clear flat-bottomed plates (Thermo Fisher Scientific). The next day, the cells were treated with increasing doses of QR2 inhibitors or vehicle for 3 h, and the XTT assay was then carried out as according to the manufacturer's instructions.

[3] = Solubility in water; format: physicochemical; conditions: HCl salt
From the text: In order to enable water-solubility so that an inhibitor could be easily applied to crystalized QR2, and to enable oral administration of the inhibitor and eliminate undesirable formulations, HCl was conjugated to YB-537 (see step 6 in methods section ‘Synthesis of Novel QR2 Inhibitors’ and Table 3). […] Using the water-soluble YB-537 to determine ligand-target interactions, purified human QR2 was co-crystalized in the presence of the inhibitor (FIG. 3A). […] YB-537 is bound to each of the monomers, and interacts with amino acids from both monomers, as well as with FAD. The plane of YB-537 stacks up parallel to the isoalloxazine ring of the FAD and the average distance between the planes of the two rings is 3.5 Å. Each FAD moiety forms 17 contacts within 3.5 Å to atoms from YB-537 and 48 contacts to 17 amino acids from one monomer, namely—H12, S17, F18, N19, S21, P103, L104, Y105, W106, F107, T148, T149, G150, G151, Y156, E194, and R201. YB-537 binds to the catalytic site through a series of hydrophobic and hydrogen bonds with both FAD and amino acids from both QR2 monomers, in a manner unique to it (FIG. 3B). Specifically, YB-537 forms 6 contacts to G150, G151, M155 and a hydrogen bond with N162 from one monomer (A) and 8 contacts to F127, 1129, F132, and F179 from the other monomer (B).

[4] = molecular target: T2, QR2 (Homo sapiens, UniProt P16083); assay: QR2 enzymatic activity assay (menadione/BNAH), fluorescence readout; format: biochemical; design: purchased Sigma-Aldrich
T2 sequence (P16083 1-231): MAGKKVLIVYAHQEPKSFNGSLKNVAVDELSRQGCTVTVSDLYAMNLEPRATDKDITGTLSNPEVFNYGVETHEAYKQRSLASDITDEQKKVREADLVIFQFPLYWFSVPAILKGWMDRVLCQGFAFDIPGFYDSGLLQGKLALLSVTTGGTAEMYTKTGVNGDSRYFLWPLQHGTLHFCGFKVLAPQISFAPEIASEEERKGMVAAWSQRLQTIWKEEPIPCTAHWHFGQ

[5] = tested on: THLE-2 cells; assay: Cell toxicity assay (ATP depletion, CellTiter Glo); conditions: 72 h incubation, CellTiter Glo

T1 sequence (P15559 whole entry): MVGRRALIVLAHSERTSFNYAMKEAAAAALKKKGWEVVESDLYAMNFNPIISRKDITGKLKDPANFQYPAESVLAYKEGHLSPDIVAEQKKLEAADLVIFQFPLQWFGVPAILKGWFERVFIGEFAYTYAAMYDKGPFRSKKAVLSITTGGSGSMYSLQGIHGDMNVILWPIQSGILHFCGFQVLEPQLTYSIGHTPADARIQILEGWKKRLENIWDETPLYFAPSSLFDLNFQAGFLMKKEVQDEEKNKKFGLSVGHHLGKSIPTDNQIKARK

| Compound | IC50 [1] | toxicity in XTT assay [2] | solubility in water [3] | IC50 [4] | median lethal dose (LD50) in THLE cells [5] |
| --- | --- | --- | --- | --- | --- |
| Cc1ccc(-c2cn3cccc(C)c3n2)cc1S(=O)(=O)N1CCNCC1 [YB-537, 8-methyl-2-(4-methyl-3-(piperazin-1-ylsulfonyl)phenyl)imidazo[1,2-a]pyridine hydrochloride] | 18.4 µM | no toxicity | complete solution | 0.03 µM | > 100 µM |
| Cc1cccn2cc(-c3cccc(S(=O)(=O)N4CCC(C)CC4)c3)nc12 [YB-800] | > 9.99 µM | no toxicity | – | 0.03 µM | 78.4 µM and 78.401 µM |
